Test results from ChEMBL document CHEMBL3714722, “Aryl, Pyrimidyl Compounds, Pharmaceutical Compositions Comprising them, Their Use as Antimicrobial Agents” (2008).

What was measured:
[1] = system: Vero; test: Growth inhibition of African green monkey Vero cells up to 250 ug/ml; format: cell-based; conditions: chlorocebus sabaeus
[2] = system: Vero; test: Cytotoxic activity against African green monkey Vero cells up to 250 ug/ml; format: cell-based; conditions: chlorocebus sabaeus
[3] = molecular target: T1, Thymidylate kinase (Mycobacterium tuberculosis, UniProt P9WKE1); test: Inhibition of Mycobacterium tuberculosis TMPK using dTMP substrate and NADH by pyruvate kinase/lactate dehydrogenase coupling system based spectrophotometric assay
T1 sequence (P9WKE1 whole entry): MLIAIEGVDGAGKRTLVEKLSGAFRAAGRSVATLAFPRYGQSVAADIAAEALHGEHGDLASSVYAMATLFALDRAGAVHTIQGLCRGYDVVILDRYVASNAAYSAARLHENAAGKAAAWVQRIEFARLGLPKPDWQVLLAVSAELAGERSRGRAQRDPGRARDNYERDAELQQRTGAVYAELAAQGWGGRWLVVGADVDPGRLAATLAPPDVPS

SMILES: Cc1cn(Cc2ccc(CCCCCC(=O)O)cc2)c(=O)[nH]c1=O
- Activity [1]: Non-toxic
- Activity [2]: Non-toxic

SMILES: COC(=O)CCCC#Cc1ccc(Cn2cc(C)c(=O)[nH]c2=O)cc1
- Ki [3]: Not Active
